In patent publication US20100047839A1, “LATENT FLUORIMETRIC INDICATOR FOR BIOLOGICAL ANALYTES DETERMINATION AND THE PREPARATION METHOD THEREOF” (NATIONAL TAIPEI UNIVERSITY OF TECHNOLOGY, priority 2008, published 2010):

What was measured:
Type in all cases: biochemical
Details in all cases: BQC 10 μM, λex 500 nm, λem 595 nm, 4 h, 37° C., pH 7.6, baseline subtracted
[1] = biological target: T1, DT Diaphorase (Homo sapiens, UniProt P15559); test: Oxygen-insensitive DTD-coupling enzyme assay for ethanol determination (alcohol dehydrogenase, NAD+, DT Diaphorase)
T1 sequence (P15559 whole entry, species assumed): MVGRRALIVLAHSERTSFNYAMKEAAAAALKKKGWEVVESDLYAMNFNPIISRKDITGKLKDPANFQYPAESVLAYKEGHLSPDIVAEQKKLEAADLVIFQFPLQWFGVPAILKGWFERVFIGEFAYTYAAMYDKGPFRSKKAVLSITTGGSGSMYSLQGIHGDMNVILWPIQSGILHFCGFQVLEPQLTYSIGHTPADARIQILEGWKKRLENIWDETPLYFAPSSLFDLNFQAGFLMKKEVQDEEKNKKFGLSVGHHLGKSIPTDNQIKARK
Method: (§1) All the fluorimetric measurements carried out with an excitation wavelength of λex=500 nm and an emission wavelength of λem=595 nm. The solutions containing BQC (10 μM), DTD (1 unit), and the corresponding dehydrogenase (1 to 10 unit), NAD^+ (10 μM), and ethanol, 3-hydroxybutrate or glucose-6-phosphate (0 to 10 μM) in Tris-HCl buffer with a final volume of 1 mL were incubated for 4 h at 37° C. The fluorimetric intensity of each solution after subtracting the baseline intensity ([analytes]=0) was plotted versus the analytes concentration.
All different ethanol concentration analytes are tabulated in the table below, and the environment of assay is maintained in pH 7.6 at 37° C.

[2] = biological target: T1, DT Diaphorase; test: Oxygen-insensitive DTD-coupling enzyme assay for glucose-6-phosphate determination (glucose-6-phosphate dehydrogenase, phosphoglucomutase, NAD+, DT Diaphorase)
Method: as §1
All different glucose-6-phophate concentration analytes are tabulated in the table below, and the environment of assay is maintained in pH 7.6 at 37° C.

[3] = biological target: T1, DT Diaphorase; test: Oxygen-insensitive DTD-coupling enzyme assay for 3-hydroxybutyrate determination (3-hydroxybutyrate dehydrogenase, NAD+, DT Diaphorase)
Method: as §1
All different 3-hydroxybutyrate concentration analytes are tabulated in the table below, and the environment of assay is maintained in pH 7.6 at 37° C.

Compound: CC1=C(C)C(=O)C(C(C)(C)CC(=O)N(C)CCN(C)C(=O)Oc2ccc3c(C#N)c(-c4nc5ccccc5s4)c(=O)oc3c2)=C(C)C1=O [BQC]
- relative fluorescence intensity ([1]; ethanol 0.2 μM): 10.79
- relative fluorescence intensity ([1]; ethanol 0.6 μM): 26.18
- relative fluorescence intensity ([1]; ethanol 0.8 μM): 35.23
- relative fluorescence intensity ([1]; ethanol 1 μM): 39.42
- relative fluorescence intensity ([1]; ethanol 2 μM): 77.06
- relative fluorescence intensity ([2]; glucose-6-phosphate 1 μM): 17.02
- relative fluorescence intensity ([2]; glucose-6-phosphate 2 μM): 36.84
- relative fluorescence intensity ([2]; glucose-6-phosphate 4 μM): 76.41
- relative fluorescence intensity ([2]; glucose-6-phosphate 6 μM): 144.45
- relative fluorescence intensity ([2]; glucose-6-phosphate 8 μM): 175.2
- relative fluorescence intensity ([2]; glucose-6-phosphate 9 μM): 190.32
- relative fluorescence intensity ([2]; glucose-6-phosphate 10 μM): 207.94
- relative fluorescence intensity ([3]; 3-hydroxybutyrate 1 μM): 16.17
- relative fluorescence intensity ([3]; 3-hydroxybutyrate 2 μM): 47.59
- relative fluorescence intensity ([3]; 3-hydroxybutyrate 4 μM): 83.74
- relative fluorescence intensity ([3]; 3-hydroxybutyrate 6 μM): 126.26
- relative fluorescence intensity ([3]; 3-hydroxybutyrate 8 μM): 144.93
- relative fluorescence intensity ([3]; 3-hydroxybutyrate 10 μM): 198.56
